Reference: patent US10442807B2, “Aryl substituted bicyclic compounds as herbicides” (FMC Corporation, priority 2015, dated 2019)

Tests used:
Format in all cases: in vivo
[1] = tested on: blackgrass (Alopecurus myosuroides); test: Test A postemergence application, visual injury rating; conditions: approx. 10 d, 0 = no effect, 100 = complete control
Procedure, shortened: (§1)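 Seeds sown in loam/sand soil got a directed soil spray before emergence, or plants at one- to two-leaf stage (2-10 cm) were sprayed postemergence; chemical in non-phytotoxic solvent with surfactant. Greenhouse approx. 10 d, then visual injury vs untreated controls on 0 (no effect) to 100 (complete control) scale.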

[2] = tested on: galium (catchweed bedstraw, Galium aparine); test: as above; conditions: approx. 10 d, 0 = no effect, 100 = complete control
Procedure, shortened: as §1

[3] = tested on: barnyardgrass (Echinochloa crus-galli); test: as above; conditions: approx. 10 d, 0 = no effect, 100 = complete control
Procedure, shortened: as §1

corn (Zea mays) = test: as above; conditions: approx. 10 d, 0 = no effect, 100 = complete control
Procedure, shortened: as §1

[4] = tested on: wheat (Triticum aestivum); test: as above; conditions: approx. 10 d, 0 = no effect, 100 = complete control
Procedure, shortened: as §1

[5] = tested on: foxtail, giant (giant foxtail, Setaria faberii); test: as above; conditions: approx. 10 d, 0 = no effect, 100 = complete control
Procedure, shortened: as §1

kochia (Kochia scoparia) [6] = test: as above; conditions: approx. 10 d, 0 = no effect, 100 = complete control
Procedure, shortened: as §1

[7] = tested on: ragweed (common ragweed, Ambrosia elation); test: as above; conditions: approx. 10 d, 0 = no effect, 100 = complete control
Procedure, shortened: as §1

[8] = tested on: ryegrass, Italian (Italian ryegrass, Lolium multiflorum); test: as above; conditions: approx. 10 d, 0 = no effect, 100 = complete control
Procedure, shortened: as §1

[9] = tested on: pigweed (Amaranthus retroflexus); test: as above; conditions: approx. 10 d, 0 = no effect, 100 = complete control
Procedure, shortened: as §1

[10] = tested on: barnyardgrass (Echinochloa crus-galli); test: Test A preemergence, directed soil spray, visual injury rating; conditions: approx. 10 d, 0 = no effect, 100 = complete control
Procedure, shortened: as §1

[11] = tested on: foxtail, giant (giant foxtail, Setaria faberii); test: as above; conditions: approx. 10 d, 0 = no effect, 100 = complete control
Procedure, shortened: as §1

kochia (Kochia scoparia) [12] = test: as above; conditions: approx. 10 d, 0 = no effect, 100 = complete control
Procedure, shortened: as §1

[13] = tested on: ragweed (common ragweed, Ambrosia elation); test: as above; conditions: approx. 10 d, 0 = no effect, 100 = complete control
Procedure, shortened: as §1

[14] = tested on: ryegrass, Italian (Italian ryegrass, Lolium multiflorum); test: as above; conditions: approx. 10 d, 0 = no effect, 100 = complete control
Procedure, shortened: as §1

[15] = tested on: pigweed (Amaranthus retroflexus); test: as above; conditions: approx. 10 d, 0 = no effect, 100 = complete control
Procedure, shortened: as §1

rice (Oryza sativa) = test: Test B flooded paddy test, visual plant response rating; conditions: 250 g ai/ha; applied to paddy water at 2-leaf stage; rated after 13 to 15 days; scale 0 to 100, 0 is no effect, 100 is complete control
Procedure, shortened: (§2)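 Pots flooded to 3 cm above soil at treatment; compound applied directly into paddy water, depth held throughout. Greenhouse for 13 to 15 days, then visual rating versus untreated controls on a 0–100 scale (0 no effect, 100 complete control); dash means no result.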

[16] = tested on: barnyardgrass (Echinochloa crus-galli); test: as above; conditions: 250 g ai/ha; applied to paddy water at 2-leaf stage; rated after 13 to 15 days; scale 0 to 100, 0 is no effect, 100 is complete control
Procedure, shortened: as §2

[17] = tested on: ducksalad (Heteranthera limosa); test: as above; conditions: 250 g ai/ha; applied to paddy water at 2-leaf stage; rated after 13 to 15 days; scale 0 to 100, 0 is no effect, 100 is complete control
Procedure, shortened: as §2

[18] = tested on: sedge, umbrella (small-flower umbrella sedge, Cyperus difformis); test: as above; conditions: 250 g ai/ha; applied to paddy water at 2-leaf stage; rated after 13 to 15 days; scale 0 to 100, 0 is no effect, 100 is complete control
Procedure, shortened: as §2

SMILES	Blackgrass plant response rating (0 to 100 scale) ([1]; 125 g ai/ha)	Blackgrass plant response rating (0 to 100 scale) ([1]; 500 g ai/ha)	Galium plant response rating (0 to 100 scale) ([2]; 125 g ai/ha)	Galium plant response rating (0 to 100 scale) ([2]; 500 g ai/ha)	Barnyardgrass plant response rating (0 to 100 scale) ([3]; 125 g ai/ha)	Barnyardgrass plant response rating (0 to 100 scale) ([3]; 500 g ai/ha)	Corn plant response rating (0 to 100 scale) (corn (Zea mays); 125 g ai/ha)	Corn plant response rating (0 to 100 scale) (corn (Zea mays); 500 g ai/ha)	Wheat plant response rating (0 to 100 scale) ([4]; 125 g ai/ha)	Wheat plant response rating (0 to 100 scale) ([4]; 500 g ai/ha)	Foxtail, Giant plant response rating (0 to 100 scale) ([5]; 125 g ai/ha)	Foxtail, Giant plant response rating (0 to 100 scale) ([5]; 500 g ai/ha)	Kochia plant response rating (0 to 100 scale) (kochia (Kochia scoparia) [6]; 125 g ai/ha)	Kochia plant response rating (0 to 100 scale) (kochia (Kochia scoparia) [6]; 500 g ai/ha)	Ragweed plant response rating (0 to 100 scale) ([7]; 125 g ai/ha)	Ragweed plant response rating (0 to 100 scale) ([7]; 500 g ai/ha)	Ryegrass, Italian plant response rating (0 to 100 scale) ([8]; 125 g ai/ha)	Ryegrass, Italian plant response rating (0 to 100 scale) ([8]; 500 g ai/ha)	Pigweed plant response rating (0 to 100 scale) ([9]; 125 g ai/ha)	Pigweed plant response rating (0 to 100 scale) ([9]; 500 g ai/ha)	also measured
Cc1ccc(C2Cn3cnnc3C2C(=O)Nc2cccc(F)c2F)cc1C (stereo not drawn) [Compound 16]	0	60	40	50	60	80	0	70	0	50	60	80	30	30	0	50	0	50	0	0	Barnyardgrass plant response rating (0 to 100 scale) ([10]; 125 g ai/ha): 70; Barnyardgrass plant response rating (0 to 100 scale) ([10]; 500 g ai/ha): 90; Foxtail, Giant plant response rating (0 to 100 scale) ([11]; 125 g ai/ha): 90; Foxtail, Giant plant response rating (0 to 100 scale) ([11]; 500 g ai/ha): 90; Kochia plant response rating (0 to 100 scale) (kochia (Kochia scoparia) [12]; 125 g ai/ha): 70; Kochia plant response rating (0 to 100 scale) (kochia (Kochia scoparia) [12]; 500 g ai/ha): 80; Ragweed plant response rating (0 to 100 scale) ([13]; 125 g ai/ha): 0; Ragweed plant response rating (0 to 100 scale) ([13]; 500 g ai/ha): 50; Ryegrass, Italian plant response rating (0 to 100 scale) ([14]; 125 g ai/ha): 0; Ryegrass, Italian plant response rating (0 to 100 scale) ([14]; 500 g ai/ha): 60; Pigweed plant response rating (0 to 100 scale) ([15]; 125 g ai/ha): 0; Pigweed plant response rating (0 to 100 scale) ([15]; 500 g ai/ha): 0; Plant response rating, Flood, Rice (rice (Oryza sativa)): 15; Plant response rating, Flood, Barnyardgrass [16]: 50; Plant response rating, Flood, Ducksalad [17]: 75; Plant response rating, Flood, Sedge, Umbrella [18]: 0
CCCc1nnc2n1CC(c1ccc(C(F)(F)F)cc1)C2C(=O)Nc1cccc(F)c1F (stereo not drawn) [Compound 17]	0	20	40	50	0	30	0	0	0	0	0	30	20	50	0	0	0	0	0	40	Barnyardgrass plant response rating (0 to 100 scale) ([10]; 125 g ai/ha): 0; Barnyardgrass plant response rating (0 to 100 scale) ([10]; 500 g ai/ha): 50; Foxtail, Giant plant response rating (0 to 100 scale) ([11]; 125 g ai/ha): 30; Foxtail, Giant plant response rating (0 to 100 scale) ([11]; 500 g ai/ha): 90; Kochia plant response rating (0 to 100 scale) (kochia (Kochia scoparia) [12]; 125 g ai/ha): 0; Kochia plant response rating (0 to 100 scale) (kochia (Kochia scoparia) [12]; 500 g ai/ha): 30; Ragweed plant response rating (0 to 100 scale) ([13]; 125 g ai/ha): 0; Ragweed plant response rating (0 to 100 scale) ([13]; 500 g ai/ha): 0; Ryegrass, Italian plant response rating (0 to 100 scale) ([14]; 125 g ai/ha): 0; Ryegrass, Italian plant response rating (0 to 100 scale) ([14]; 500 g ai/ha): 0; Pigweed plant response rating (0 to 100 scale) ([15]; 125 g ai/ha): 0; Pigweed plant response rating (0 to 100 scale) ([15]; 500 g ai/ha): 20; Plant response rating, Flood, Rice (rice (Oryza sativa)): 0; Plant response rating, Flood, Barnyardgrass [16]: 0; Plant response rating, Flood, Ducksalad [17]: 30; Plant response rating, Flood, Sedge, Umbrella [18]: 0
CSc1ccccc1NC(=O)C1c2nncn2CC1c1ccc(C)c(C)c1 (stereo not drawn) [Compound 18]	0	0	20	20	0	30	0	0	0	0	0	20	20	20	0	0	0	0	0	0	Barnyardgrass plant response rating (0 to 100 scale) ([10]; 125 g ai/ha): 20; Barnyardgrass plant response rating (0 to 100 scale) ([10]; 500 g ai/ha): 60; Foxtail, Giant plant response rating (0 to 100 scale) ([11]; 125 g ai/ha): 0; Foxtail, Giant plant response rating (0 to 100 scale) ([11]; 500 g ai/ha): 80; Kochia plant response rating (0 to 100 scale) (kochia (Kochia scoparia) [12]; 125 g ai/ha): 0; Kochia plant response rating (0 to 100 scale) (kochia (Kochia scoparia) [12]; 500 g ai/ha): 0; Ragweed plant response rating (0 to 100 scale) ([13]; 125 g ai/ha): 0; Ragweed plant response rating (0 to 100 scale) ([13]; 500 g ai/ha): 30; Ryegrass, Italian plant response rating (0 to 100 scale) ([14]; 125 g ai/ha): 0; Ryegrass, Italian plant response rating (0 to 100 scale) ([14]; 500 g ai/ha): 20; Pigweed plant response rating (0 to 100 scale) ([15]; 125 g ai/ha): 0; Pigweed plant response rating (0 to 100 scale) ([15]; 500 g ai/ha): 0; Plant response rating, Flood, Rice (rice (Oryza sativa)): 0; Plant response rating, Flood, Barnyardgrass [16]: 0; Plant response rating, Flood, Ducksalad [17]: 40; Plant response rating, Flood, Sedge, Umbrella [18]: 0
